Data on 4 molecules can be found in patent publication US7468457B2, “Ligand inhibitors of the RAR receptors, process for preparing same and therapeutic/cosmetic applications thereof” (Galderma Research & Development, priority 2002, dated 2008).

The IC50 is the point on the concentration scale where inhibition reaches its midpoint. The low end stands for inhibition by little substance, the high end for a need for much substance.

What all share (format): cell-based
The target of one assay is T1, RAR GAMMA (Homo sapiens, UniProt P13631).
T1 sequence (P13631 185-454 limits assumed): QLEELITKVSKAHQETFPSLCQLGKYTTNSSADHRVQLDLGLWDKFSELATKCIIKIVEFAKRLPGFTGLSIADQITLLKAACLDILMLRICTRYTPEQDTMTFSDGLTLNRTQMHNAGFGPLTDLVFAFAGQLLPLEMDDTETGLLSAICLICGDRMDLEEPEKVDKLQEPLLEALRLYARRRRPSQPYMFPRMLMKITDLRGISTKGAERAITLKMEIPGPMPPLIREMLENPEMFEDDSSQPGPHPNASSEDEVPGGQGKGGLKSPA
Nature of the assay: Transactivation test (luciferase reporter, HeLa stable transfectants), RAR gamma. The following applies: HeLa cells; for Kd: apparent Kd from Schild regression of crossed curves against reference agonist, read-out: RAR GAMMA Kd app; for IC50: inhibition at the reference agonist concentration that gives 80% activation. Here is the method: (§1) The activation of receptors with an agonist (activator) in HeLa cells leads to the expression of a reporter gene, luciferase, which, in the presence of a substrate, generates light. The activation of the receptors may thus be measured by quantifying the luminescence produced after incubating the cells in the presence of a reference agonist. The inhibitory products displace the agonist from its site, thus preventing activation of the receptor. The activity is measured by quantifying the reduction in light produced. This measurement makes it possible to determine the inhibitory activity of the compounds according to the invention.
(§2) Determination of the Kdapp:
(§3) In this study, a constant is determined which represents the affinity of the molecule for the receptor. Since this value can fluctuate depending on the basal activity and the expression of the receptor, it is referred to as the Kd apparent (KdApp).
(§4) To determine this constant, “crossed curves” of the test product against a reference agonist, 4-[2-(5,5,8,8-tetramethyl-5,6,7,8-tetrahydro-2-naphthyl)propenyl]benzoic acid, are performed in 96-well plates. The test product is used at 10 concentrations and the reference agonist at 7 concentrations. In each well, the cells are in contact with a concentration of the test product and a concentration of the reference agonist, 4-[2-(5,5,8,8-tetramethyl-5,6,7,8-tetrahydro-2-naphthyl)propenyl]benzoic acid. Measurements are also taken for the total agonist (4-[2-(5,5,8,8-tetramethyl-5,6,7,8-tetrahydro-2-naphthyl)propenyl]benzoic acid) and inverse agonist, 4-{(E)-3-[4-(4-tert-butylphenyl)-5,5,8,8-tetramethyl-5,6,7,8-tetrahydro-2-naphthyl]-3-oxopropenyl}benzoic acid, controls.
(§5) These crossed curves make it possible to determine the AC50 values (concentration at which 50% activation is observed) for the reference ligand at various concentrations of test product. These AC50 values are used to calculate the Schild regression by plotting a straight line corresponding to the Schild equation (“quantition in receptor pharmacology” Terry P. Kenakin, Receptors and Channels, 2001,7,371-385).
(§6) In the case of an antagonist, an IC50 value (concentration that inhibits 50% of the activity) is calculated by plotting the curve of the product at the concentration of the reference ligand that gives 80% activation.
(§7) The HeLa cell lines used are stable transfectants containing the plasmids ERE-βGlob-Luc-SV-Neo (reporter gene) and RAR (α, β, γ) ER-DBD-puro. These cells are inoculated into 96-well plates at a rate of 10 000 cells per well in 100 μl of DMEM medium without phenol red, and supplemented with 10% defatted calf serum. The plates are then incubated at 37° C. and 7% CO2 for 4 hours.
(§8) The various dilutions of the test products, of the reference ligand (4-[2-(5,5,8,8-tetramethyl-5,6,7,8-tetrahydro-2-naphthyl)propenyl]benzoic acid), of the 100% control (100 nM 4-[2-(5,5,8,8-tetramethyl-5,6,7,8-tetrahydro-2-naphthyl)propenyl]benzoic acid) and of the 0% control (500 nM 4-{(E)-3-[4-(4-tert-butylphenyl)-5,5,8,8-tetramethyl-5,6,7,8-tetrahydro-2-naphthyl]-3-oxopropenyl}benzoic acid) are added at a rate of 5 μl per well. The plates are then incubated for 18 hours at 37° C. and 7% CO2.
(§9) The culture medium is removed by turning over and 100 μl of a 1:1 PBS/luciferine mixture is added to each well. After 5 minutes, the plates are read using the luminescence detector.
(In general: A reporter such as luciferase makes a cellular process visible.)

The target of the next assay is T2, RAR BETA (Homo sapiens, UniProt P10826).
T2 sequence (P10826 183-455 limits assumed): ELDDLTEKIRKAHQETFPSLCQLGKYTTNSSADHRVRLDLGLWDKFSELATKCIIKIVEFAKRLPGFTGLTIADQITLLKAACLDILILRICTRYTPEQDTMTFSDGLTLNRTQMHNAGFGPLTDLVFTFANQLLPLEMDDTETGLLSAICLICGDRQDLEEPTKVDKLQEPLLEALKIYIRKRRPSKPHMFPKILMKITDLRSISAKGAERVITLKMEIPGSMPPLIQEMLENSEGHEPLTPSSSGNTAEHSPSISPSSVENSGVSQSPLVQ
Nature of the assay: Transactivation test (luciferase reporter, HeLa stable transfectants), RAR beta. The following applies: HeLa cells; for Kd: apparent Kd from Schild regression of crossed curves against reference agonist, read-out: RAR BETA Kd app; for IC50: inhibition at the reference agonist concentration that gives 80% activation. The protocol:
as §1, §2, §3, §4, §5, §6, §7, §8, §9

The target in the next assay is T3, RAR ALPHA (Homo sapiens, UniProt P10276).
T3 sequence (P10276 183-417 limits assumed): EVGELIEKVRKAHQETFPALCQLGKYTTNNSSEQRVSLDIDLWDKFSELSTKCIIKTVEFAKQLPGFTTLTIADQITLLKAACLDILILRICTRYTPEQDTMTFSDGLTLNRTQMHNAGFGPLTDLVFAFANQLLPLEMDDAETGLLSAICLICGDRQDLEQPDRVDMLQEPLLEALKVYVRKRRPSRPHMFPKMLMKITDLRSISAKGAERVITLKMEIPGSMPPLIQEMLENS
Nature of the assay: Transactivation test (luciferase reporter, HeLa stable transfectants), RAR alpha. The settings on record: HeLa cells; for Kd: apparent Kd from Schild regression of crossed curves against reference agonist, read-out: RAR ALPHA Kd app; for IC50: inhibition at the reference agonist concentration that gives 80% activation. The protocol: as §1, §2, §3, §4, §5, §6, §7, §8, §9

Take `Cc1ccc(-c2cc(C(=O)/C=C/c3ccc(C(=O)O)cc3)cc3c2C(C)(C)CCC3(C)C)cc1` [Ex. 7]: the Kd on RAR GAMMA came to 1 nM; at RAR BETA it was 0.25 nM; at RAR ALPHA, 1 nM. For the same molecule, the half-inhibitory concentration (IC50) on RAR GAMMA came to 2.5 nM; on RAR BETA it was 0.4 nM; at RAR ALPHA, 1.75 nM.
With `Cc1ccc(-c2cc(C(O)/C=C/c3ccc(C(=O)O)cc3)cc3c2C(C)(C)CCC3(C)C)cc1` (stereo not drawn) [Ex. 9, 4-[(E)-3-Hydroxy-3-(5,5,8,8-tetramethyl-4-p-tolyl-5,6,7,8-tetrahydro-2-naphthyl)propenyl]benzoic Acid], the Kd at RAR GAMMA was found to be 30 nM; at RAR BETA it was 500 nM; at RAR ALPHA it was 250 nM. The half-maximal inhibitory concentration (IC50) at RAR GAMMA came to 75 nM; at RAR BETA, 800 nM; on RAR ALPHA it was 437 nM.
As for `CC(C)(C)c1ccc(-c2cc(C(=O)/C=C/c3ccc(C(=O)O)cc3)cc3c2C(C)(C)CCC3(C)C)cc1` [Ex. 8, 4-{(E)-3-[4-(4-tert-Butylphenyl)-5,5,8,8-tetramethyl-5,6,7,8-tetrahydro-2-naphthyl]-3-oxopropenyl}benzoic Acid], the Kd at RAR GAMMA was 0.25 nM; at RAR BETA, 4 nM; on RAR ALPHA it was 2 nM. The figures for the 50% inhibitory concentration (IC50) at RAR GAMMA, on RAR BETA and at RAR ALPHA were 0.625 nM, 6.4 nM and 3.5 nM, respectively.
`Cc1ccc(-c2cc(C(O)C#Cc3ccc(C(=O)O)cc3)cc3c2C(C)(C)CCC3(C)C)cc1` (stereo not drawn) [Ex. 5, 4-[3-Hydroxy-3-(5,5,8,8-tetramethyl-4-p-tolyl-5,6,7,8-tetrahydro-2-naphthyl)-1-propynyl]benzoic Acid]: the figures for the Kd at RAR GAMMA, on RAR BETA and at RAR ALPHA were 15 nM, 60 nM and 4000 nM, respectively. Also, the IC50 came to 37.5 nM at RAR GAMMA, 96 nM on RAR BETA and 7000 nM on RAR ALPHA.
